One block for each compound: values may come before it.
Tests used:
Assay in all cases: TR-FRET enzymatic activity assay against PI3K isoforms
Format in all cases: biochemical
[1] = target: PI3Kβ (Homo sapiens (Human), UniProt P42338); details: for IC50: PI3Kβ, TR-FRET, 2×Km ATP, 30 minutes at 25° C.
Text: (§1) The compounds of formula (I) were characterized for their enzymatic activity against the PI3K isoforms. […] TR-FRET monitored the formation of 3,4,5-inositol triphosphate molecule that competed with fluorescently labeled PIP3 for binding to the GRP-1 pleckstrin homology domain protein.

[2] = target: PI3Kγ (Homo sapiens (Human), UniProt P48736); details: 2×Km ATP, 30 minutes at 25° C.
Chain of PI3Kγ (P48736 whole entry): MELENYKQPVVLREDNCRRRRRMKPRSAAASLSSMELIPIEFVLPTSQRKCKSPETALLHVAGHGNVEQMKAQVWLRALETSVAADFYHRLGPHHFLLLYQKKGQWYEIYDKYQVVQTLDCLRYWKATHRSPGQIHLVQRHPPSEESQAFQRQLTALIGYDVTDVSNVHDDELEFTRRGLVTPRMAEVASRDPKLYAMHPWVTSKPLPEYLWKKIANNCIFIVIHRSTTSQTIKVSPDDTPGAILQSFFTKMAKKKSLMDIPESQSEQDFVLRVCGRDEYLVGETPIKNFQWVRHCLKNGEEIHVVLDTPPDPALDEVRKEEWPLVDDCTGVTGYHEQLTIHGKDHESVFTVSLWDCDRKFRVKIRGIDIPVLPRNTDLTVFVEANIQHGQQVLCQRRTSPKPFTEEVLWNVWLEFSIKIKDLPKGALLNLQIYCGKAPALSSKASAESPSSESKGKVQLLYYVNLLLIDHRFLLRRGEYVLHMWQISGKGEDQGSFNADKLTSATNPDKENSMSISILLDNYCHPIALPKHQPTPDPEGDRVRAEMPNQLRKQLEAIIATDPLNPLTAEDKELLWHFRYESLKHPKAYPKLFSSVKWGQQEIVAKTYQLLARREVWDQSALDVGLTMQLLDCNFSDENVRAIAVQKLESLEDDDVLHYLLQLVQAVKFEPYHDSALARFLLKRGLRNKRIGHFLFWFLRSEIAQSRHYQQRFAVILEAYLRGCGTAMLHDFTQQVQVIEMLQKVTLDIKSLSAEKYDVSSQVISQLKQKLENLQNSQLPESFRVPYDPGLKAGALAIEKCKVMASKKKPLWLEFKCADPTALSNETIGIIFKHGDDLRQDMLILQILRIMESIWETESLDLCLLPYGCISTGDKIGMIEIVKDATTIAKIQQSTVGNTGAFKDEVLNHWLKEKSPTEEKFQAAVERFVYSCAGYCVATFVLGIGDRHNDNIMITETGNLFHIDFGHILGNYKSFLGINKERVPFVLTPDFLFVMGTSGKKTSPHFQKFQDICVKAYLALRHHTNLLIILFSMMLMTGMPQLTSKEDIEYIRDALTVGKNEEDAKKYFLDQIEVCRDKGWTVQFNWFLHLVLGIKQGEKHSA
Text: as §1

[3] = target: PI3Kδ (Homo sapiens (Human), UniProt O00329); details: 2×Km ATP, 30 minutes at 25° C.
Chain of PI3Kδ (O00329 whole entry): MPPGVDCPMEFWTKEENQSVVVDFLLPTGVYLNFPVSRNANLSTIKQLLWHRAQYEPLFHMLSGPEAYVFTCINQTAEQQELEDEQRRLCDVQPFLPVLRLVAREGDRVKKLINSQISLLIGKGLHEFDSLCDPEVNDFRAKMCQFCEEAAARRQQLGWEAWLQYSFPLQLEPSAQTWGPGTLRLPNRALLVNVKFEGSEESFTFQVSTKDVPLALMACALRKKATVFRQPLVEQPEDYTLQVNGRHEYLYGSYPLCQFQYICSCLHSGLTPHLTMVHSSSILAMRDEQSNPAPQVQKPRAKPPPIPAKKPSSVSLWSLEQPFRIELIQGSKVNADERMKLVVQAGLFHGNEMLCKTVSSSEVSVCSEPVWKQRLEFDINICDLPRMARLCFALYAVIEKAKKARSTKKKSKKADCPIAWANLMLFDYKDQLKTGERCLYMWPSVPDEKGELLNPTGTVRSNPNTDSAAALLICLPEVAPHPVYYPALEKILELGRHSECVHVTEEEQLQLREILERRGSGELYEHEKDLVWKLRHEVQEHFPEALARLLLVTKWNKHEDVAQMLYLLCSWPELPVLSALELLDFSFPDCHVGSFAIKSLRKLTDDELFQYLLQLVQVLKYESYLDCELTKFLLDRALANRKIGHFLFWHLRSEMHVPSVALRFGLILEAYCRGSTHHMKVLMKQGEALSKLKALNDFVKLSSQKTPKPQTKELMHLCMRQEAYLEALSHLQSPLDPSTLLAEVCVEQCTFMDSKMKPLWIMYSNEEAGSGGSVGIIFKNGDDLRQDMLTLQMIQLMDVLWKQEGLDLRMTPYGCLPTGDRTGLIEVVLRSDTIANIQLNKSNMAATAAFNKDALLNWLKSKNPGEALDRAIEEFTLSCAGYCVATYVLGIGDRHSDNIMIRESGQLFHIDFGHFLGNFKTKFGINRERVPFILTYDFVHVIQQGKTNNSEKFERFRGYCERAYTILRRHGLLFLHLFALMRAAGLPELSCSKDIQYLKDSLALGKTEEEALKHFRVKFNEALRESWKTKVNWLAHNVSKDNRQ
Chain of PI3Kδ (P27986 whole entry partner): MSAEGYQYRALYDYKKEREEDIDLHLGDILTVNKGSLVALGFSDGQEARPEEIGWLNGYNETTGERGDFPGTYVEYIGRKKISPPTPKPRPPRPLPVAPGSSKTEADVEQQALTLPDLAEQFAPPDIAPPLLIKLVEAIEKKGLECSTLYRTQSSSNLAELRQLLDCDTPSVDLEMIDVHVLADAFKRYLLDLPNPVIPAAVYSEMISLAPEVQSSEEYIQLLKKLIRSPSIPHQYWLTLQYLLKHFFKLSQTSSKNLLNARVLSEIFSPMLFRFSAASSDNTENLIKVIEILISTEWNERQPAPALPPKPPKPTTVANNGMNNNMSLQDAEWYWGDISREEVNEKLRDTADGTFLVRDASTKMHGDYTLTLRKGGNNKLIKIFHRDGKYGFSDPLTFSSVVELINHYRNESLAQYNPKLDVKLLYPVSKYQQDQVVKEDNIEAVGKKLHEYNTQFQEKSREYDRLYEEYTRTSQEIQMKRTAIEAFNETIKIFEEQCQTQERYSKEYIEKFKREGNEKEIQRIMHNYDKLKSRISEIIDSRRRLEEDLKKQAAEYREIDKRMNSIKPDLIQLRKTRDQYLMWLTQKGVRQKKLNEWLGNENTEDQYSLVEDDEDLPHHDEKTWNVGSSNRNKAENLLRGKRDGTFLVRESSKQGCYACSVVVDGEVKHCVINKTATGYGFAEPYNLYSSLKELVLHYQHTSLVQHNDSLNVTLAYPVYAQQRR
Text: as §1

Chain of PI3Kβ (P42338 whole entry, the tested form may be a part, canonical isoform): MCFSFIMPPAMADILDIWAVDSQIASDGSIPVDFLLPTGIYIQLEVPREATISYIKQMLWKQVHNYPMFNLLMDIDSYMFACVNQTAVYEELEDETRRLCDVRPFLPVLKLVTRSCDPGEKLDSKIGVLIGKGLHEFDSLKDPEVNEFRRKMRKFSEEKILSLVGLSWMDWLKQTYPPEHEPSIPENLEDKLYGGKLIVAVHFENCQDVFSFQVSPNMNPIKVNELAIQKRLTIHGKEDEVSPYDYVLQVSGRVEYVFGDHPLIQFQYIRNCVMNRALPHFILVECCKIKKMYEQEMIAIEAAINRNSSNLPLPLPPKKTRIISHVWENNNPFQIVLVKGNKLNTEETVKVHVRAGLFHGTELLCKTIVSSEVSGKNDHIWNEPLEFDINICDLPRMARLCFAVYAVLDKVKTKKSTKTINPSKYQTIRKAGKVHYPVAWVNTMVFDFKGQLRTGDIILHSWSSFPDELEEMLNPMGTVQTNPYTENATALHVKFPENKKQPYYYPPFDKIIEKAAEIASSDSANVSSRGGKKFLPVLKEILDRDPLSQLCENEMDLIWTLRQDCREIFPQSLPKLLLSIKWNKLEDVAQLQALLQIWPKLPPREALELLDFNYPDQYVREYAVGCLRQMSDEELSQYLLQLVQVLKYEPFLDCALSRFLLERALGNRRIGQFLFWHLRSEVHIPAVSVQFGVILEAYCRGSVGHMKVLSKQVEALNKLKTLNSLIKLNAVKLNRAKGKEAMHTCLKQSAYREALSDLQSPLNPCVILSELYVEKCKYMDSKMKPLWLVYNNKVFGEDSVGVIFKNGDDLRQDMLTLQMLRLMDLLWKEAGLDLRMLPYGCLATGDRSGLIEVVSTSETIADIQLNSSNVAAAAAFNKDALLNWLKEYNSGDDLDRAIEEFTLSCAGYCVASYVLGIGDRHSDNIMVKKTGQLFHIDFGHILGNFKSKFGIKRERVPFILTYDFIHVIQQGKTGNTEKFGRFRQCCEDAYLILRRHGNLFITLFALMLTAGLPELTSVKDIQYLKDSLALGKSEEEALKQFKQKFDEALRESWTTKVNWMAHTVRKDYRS
Chain of PI3Kβ (P27986 whole entry partner, the tested form may be a part, canonical isoform): as the sequence (P27986 whole entry partner) above

SMILES: C[C@H](NC(=O)c1nc(Br)c(N)nc1N)c1nc2cccc(Cl)c2c(=O)n1CCCN [Compound 50, (S)-3,5-diamino-N-(1-(3-(3-aminopropyl)-5-chloro-4-oxo-3,4-dihydroquinazolin-2-yl)ethyl)-6-bromopyrazine-2-carboxamide]
IC50 [1]: 75 nM | IC50 [2]: 4600 nM | IC50 [3]: 71 nM

SMILES: CC(=O)NCCCn1c([C@H](C)Nc2ncnc(N)c2C#N)nc2cccc(Cl)c2c1=O [Compound 51, (S)—N-(3-(2-(1-((6-amino-5-cyanopyrimidin-4-yl)amino)ethyl)-5-chloro-4-oxoquinazolin-3(4H)-yl)propyl)acetamide]
IC50 [1]: 110 nM | IC50 [2]: 5500 nM | IC50 [3]: 8 nM

SMILES: CC(C)(C)C(=O)NCCCn1c([C@@H](Nc2nc(N)nc(N)c2C#N)C2CC2)nc2cccc(Cl)c2c1=O [Compound 52, (S)—N-(3-(5-chloro-2-(cyclopropyl((2,6-diamino-5-cyanopyrimidin-4-yl)amino)methyl)-4-oxoquinazolin-3(4H)-yl)propyl)pivalamide]
IC50 [1]: 29 nM | IC50 [2]: 1200 nM | IC50 [3]: 4 nM

SMILES: C[C@H](Nc1ncnc(N)c1C#N)c1nc2cccc(Cl)c2c(=O)n1CCCN(C)C [Compound 57, (S)-4-amino-6-((1-(5-chloro-3-(3-(dimethylamino)propyl)-4-oxo-3,4-dihydroquinazolin-2-yl)ethyl)amino)pyrimidine-5-carbonitrile]
IC50 [1]: 480 nM | IC50 [2]: ≥ 10000 nM | IC50 [3]: 6 nM

SMILES: C[C@H](Nc1nc(N)nc(N)c1C#N)c1nc2cccc(Cl)c2c(=O)n1CCN(C)C [Compound 58, (S)-2,4-diamino-6-((1-(5-chloro-3-(2-(dimethylamino)ethyl)-4-oxo-3,4-dihydroquinazolin-2-yl)ethyl)amino)pyrimidine-5-carbonitrile]
IC50 [1]: 460 nM | IC50 [2]: 6600 nM | IC50 [3]: 24 nM

SMILES: NC(=O)CCCCn1c([C@@H](Nc2nc(N)nc(N)c2Cl)C2CC2)nc2cccc(Cl)c2c1=O [Compound 59, (S)-5-(5-chloro-2-(cyclopropyl((2,6-diamino-5-chloropyrimidin-4-yl)amino)methyl)-4-oxoquinazolin-3(4H)-yl)pentanamide]
IC50 [1]: 500 nM | IC50 [2]: 2200 nM | IC50 [3]: 8 nM

SMILES: C[C@H](Nc1nc(N)nc(N)c1C#N)c1nc2cccc(Cl)c2c(=O)n1CCCN(C)Cc1ccccc1 [Compound 60, (S)-2,4-diamino-6-((1-(3-(3-(benzyl(methyl)amino)propyl)-5-chloro-4-oxo-3,4-dihydroquinazolin-2-yl)ethyl)amino)pyrimidine-5-carbonitrile]
IC50 [1]: 150 nM | IC50 [2]: 6400 nM | IC50 [3]: 4 nM

SMILES: Cc1nc(N)nc(N[C@@H](C)c2nc3cccc(Cl)c3c(=O)n2CCCN(C)Cc2ccccc2)c1C#N [Compound 61, (S)-2-amino-4-((1-(3-(3-(benzyl(methyl)amino)propyl)-5-chloro-4-oxo-3,4-dihydroquinazolin-2-yl)ethyl)amino)-6-methylpyrimidine-5-carbonitrile]
IC50 [1]: 140 nM | IC50 [2]: 6600 nM | IC50 [3]: 7 nM

SMILES: C[C@H](Nc1nc(N)nc(N)c1C#N)c1nc2cccc(Cl)c2c(=O)n1CCCN(C)CC(F)(F)F [Compound 62, (S)-2,4-diamino-6-((1-(5-chloro-3-(3-(methyl(2,2,2-trifluoroethyl)amino)propyl)-4-oxo-3,4-dihydroquinazolin-2-yl)ethyl)amino)pyrimidine-5-carbonitrile]
IC50 [1]: 320 nM | IC50 [2]: 960 nM | IC50 [3]: 4 nM

SMILES: N#CCCn1c([C@@H](Nc2nc(N)nc(N)c2Cl)C2CC2)nc2cccc(Cl)c2c1=O [Compound 63, (S)-3-(5-chloro-2-(cyclopropyl((2,6-diamino-5-chloropyrimidin-4-yl)amino)methyl)-4-oxoquinazolin-3(4H)-yl)propanenitrile]
IC50 [1]: 640 nM | IC50 [2]: 800 nM | IC50 [3]: 2 nM

SMILES: NC(=O)CCn1c([C@@H](Nc2nc(N)nc(N)c2Cl)C2CC2)nc2cccc(Cl)c2c1=O [Compound 68, (S)-3-(5-chloro-2-(cyclopropyl((2,6-diamino-5-chloropyrimidin-4-yl)amino)methyl)-4-oxoquinazolin-3(4H)-yl)propanamide]
IC50 [1]: 520 nM | IC50 [2]: 1000 nM | IC50 [3]: 5 nM

SMILES: NC(=O)CCCn1c([C@@H](Nc2nc(N)nc(N)c2Cl)C2CC2)nc2cccc(Cl)c2c1=O [Compound 69, (S)-4-(5-chloro-2-(cyclopropyl((2,6-diamino-5-chloropyrimidin-4-yl)amino)methyl)-4-oxoquinazolin-3(4H)-yl)butanamide]
IC50 [1]: 49 nM | IC50 [2]: 1300 nM | IC50 [3]: 2 nM

SMILES: C[C@H](Nc1ncnn2ccnc12)c1nc2cccc(Cl)c2c(=O)n1CCCN [Compound 71, (S)-3-(3-aminopropyl)-5-chloro-2-(1-(imidazo[2,1-f][1,2,4]triazin-4-ylamino)ethyl)quinazolin-4(3H)-one]
IC50 [1]: 240 nM | IC50 [2]: ≥ 10000 nM | IC50 [3]: 34 nM

SMILES: C[C@H](Nc1ncnc2scnc12)c1nc2cccc(Cl)c2c(=O)n1CCCN [Compound 72, (S)-3-(3-aminopropyl)-5-chloro-2-(1-(thiazolo[5,4-d]pyrimidin-7-ylamino)ethyl)quinazolin-4(3H)-one]
IC50 [1]: 35 nM | IC50 [2]: 7900 nM | IC50 [3]: 12 nM

These reach a lower IC50 [1]. Values come first.

IC50 [1]: 5 nM | PI3Kγ/PI3Kβ ratio ([1]; ratio of IC50 values, selectivity for PI3Kβ over PI3Kγ): 230 | IC50 [2]: 1100 nM | IC50 [3]: 3 nM
SMILES: N#Cc1c(N)nc(N)nc1N[C@H](c1nc2cccc(Cl)c2c(=O)n1CCCN)C1CC1 [Compound 47, (S)-2,4-diamino-6-(((3-(3-aminopropyl)-5-chloro-4-oxo-3,4-dihydroquinazolin-2-yl)(cyclopropyl)methyl)amino)pyrimidine-5-carbonitrile]

IC50 [1]: 4 nM | IC50 [2]: 900 nM | IC50 [3]: 4 nM
SMILES: NCCCn1c([C@@H](Nc2ncnc3ccc(Cl)nc23)C2CC2)nc2cccc(Cl)c2c1=O [Compound 48, (S)-3-(3-aminopropyl)-5-chloro-2-(((6-chloropyrido[3,2-d]pyrimidin-4-yl)amino)(cyclopropyl)methyl)quinazolin-4(3H)-one]

IC50 [1]: 1 nM | IC50 [2]: 750 nM | IC50 [3]: 1 nM
SMILES: Cc1nc(N)nc(N[C@H](c2nc3cccc(Cl)c3c(=O)n2CCCN)C2CC2)c1C#N [Compound 49, (S)-2-amino-4-(((3-(3-aminopropyl)-5-chloro-4-oxo-3,4-dihydroquinazolin-2-yl)(cyclopropyl)methyl)amino)-6-methylpyrimidine-5-carbonitrile]

IC50 [1]: 9 nM | IC50 [2]: 190 nM | IC50 [3]: 2 nM
SMILES: CC(=O)NCCCn1c([C@@H](Nc2nc(N)nc(N)c2C#N)C2CC2)nc2cccc(Cl)c2c1=O [Compound 53, (S)—N-(3-(5-chloro-2-(cyclopropyl((2,6-diamino-5-cyanopyrimidin-4-yl)amino)methyl)-4-oxoquinazolin-3(4H)-yl)propyl)acetamide]

IC50 [1]: 5 nM | IC50 [2]: 830 nM | IC50 [3]: 0.4 nM
SMILES: N#Cc1c(N)nc(N)nc1N[C@H](c1nc2cccc(Cl)c2c(=O)n1CCCNC1CCC1)C1CC1 [Compound 54, (S)-2,4-diamino-6-(((5-chloro-3-(3-(cyclobutylamino)propyl)-4-oxo-3,4-dihydroquinazolin-2-yl)(cyclopropyl)methyl)amino)pyrimidine-5-carbonitrile]

IC50 [1]: 4 nM | IC50 [2]: 280 nM | IC50 [3]: 0.5 nM
SMILES: N#Cc1c(N)nc(N)nc1N[C@H](c1nc2cccc(Cl)c2c(=O)n1CCCNC1COC1)C1CC1 [Compound 55, (S)-2,4-diamino-6-(((5-chloro-3-(3-(oxetan-3-ylamino)propyl)-4-oxo-3,4-dihydroquinazolin-2-yl)(cyclopropyl)methyl)amino)pyrimidine-5-carbonitrile]

IC50 [1]: 4 nM | IC50 [2]: 540 nM | IC50 [3]: 0.4 nM
SMILES: N#Cc1c(N)nc(N)nc1N[C@H](c1nc2cccc(Cl)c2c(=O)n1CCCNC1CCC(F)(F)CC1)C1CC1 [Compound 56, (S)-2,4-diamino-6-(((5-chloro-3-(3-((4,4-difluorocyclohexyl)amino)propyl)-4-oxo-3,4-dihydroquinazolin-2-yl)(cyclopropyl)methyl)amino)pyrimidine-5-carbonitrile]

IC50 [1]: 12 nM | IC50 [2]: 110 nM | IC50 [3]: 1 nM
SMILES: N#Cc1c(N)nc(N)nc1N[C@H](c1nc2cccc(Cl)c2c(=O)n1CCCCC(N)=O)C1CC1 [Compound 64, (S)-5-(5-chloro-2-(cyclopropyl((2,6-diamino-5-cyanopyrimidin-4-yl)amino)methyl)-4-oxoquinazolin-3(4H)-yl)pentanamide]

IC50 [1]: 7 nM | IC50 [2]: 470 nM | IC50 [3]: 1 nM
SMILES: N#Cc1c(N)nc(N)nc1N[C@H](c1nc2c(Cl)ccc(Cl)c2c(=O)n1CCCC(N)=O)C1CC1 [Compound 65, (S)-4-(5,8-dichloro-2-(cyclopropyl((2,6-diamino-5-cyanopyrimidin-4-yl)amino)methyl)-4-oxoquinazolin-3(4H)-yl)butanamide]

IC50 [1]: 4 nM | IC50 [2]: 97 nM | IC50 [3]: 1 nM
SMILES: N#Cc1c(N)nc(N)nc1N[C@H](c1nc2cccc(Cl)c2c(=O)n1CCCC(N)=O)C1CC1 [Compound 66, (S)-4-(5-chloro-2-(cyclopropyl((2,6-diamino-5-cyanopyrimidin-4-yl)amino)methyl)-4-oxoquinazolin-3(4H)-yl)butanamide]

IC50 [1]: 21 nM | IC50 [2]: 9400 nM | IC50 [3]: 6 nM
SMILES: C[C@H](Nc1ncnc(N)c1C#N)c1nc2cccc(Cl)c2c(=O)n1CCCN [Compound 73, (S)-4-amino-6-((1-(3-(3-aminopropyl)-5-chloro-4-oxo-3,4-dihydroquinazolin-2-yl)ethyl)amino)pyrimidine-5-carbonitrile]

IC50 [1]: 17 nM | IC50 [2]: 1620 nM | IC50 [3]: 1 nM
SMILES: CC(C)NCC(O)CCn1c([C@H](C)Nc2nc(N)nc(N)c2C#N)nc2cccc(Cl)c2c1=O (stereo partly drawn) [Compound 74, 2,4-diamino-6-(((1S)-1-(5-chloro-3-(3-hydroxy-4-(isopropylamino)butyl)-4-oxo-3,4-dihydroquinazolin-2-yl)ethyl)amino)pyrimidine-5-carbonitrile]
